According to patent US7655643B2, “Antibacterial macrocycles with substituted biphenyl” (AiCuris GmbH & Co. KG, priority 2003, dated 2010):
In brackets after ≈: the same amount, converted by molar mass. Counter-ions that a name gives are not always drawn.

Legend:
S. aureus 133 [1] = test: MIC, liquid dilution test (96-well microtitre plate); assay type: cell-based; details: 18-24 h
Procedure: (§1) The minimum inhibitory concentration (MIC) is the minimum concentration of an antibiotic with which the growth of a test microbe is inhibited over 18-24 h. The inhibitor concentration can in these cases be determined by standard microbiological methods (see, for example, The National Committee for Clinical Laboratory Standards. Methods for dilution antimicrobial susceptibility tests for bacteria that grow aerobically; approved standard-fifth edition. NCCLS document M7-A5 [ISBN 1-56238-394-9]. NCCLS, 940 West Valley Road, Suite 1400, Wayne, Pa. 19087-1898 USA, 2000). The MIC of the compounds of the invention is determined in the liquid dilution test on the 96-well microtitre plate scale. The bacterial microbes are cultivated in a minimal medium (18.5 mM Na2HPO4, 5.7 mM KH2PO4, 9.3 mM NH4Cl, 2.8 mM MgSO4, 17.1 mM NaCl, 0.033 μg/ml thiamine hydrochloride, 1.2 μg/ml nicotinic acid, 0.003 μg/ml biotin, 1% glucose, 25 μg/ml of each proteinogenic amino acid with the exception of phenylalanine; [H.-P. Kroll; unpublished]) with addition of 0.4% BH broth (test medium). In the case of Enterococcus faecium L4001, heat-inactivated fetal calf serum (FCS; GibcoBRL, Germany) is added to the test medium in a final concentration of 10%. Overnight cultures of the test microbes are diluted to an OD578 of 0.001(to 0.01 in the case of enterococci) in fresh test medium, and incubated 1:1 with dilutions of the test substances (1:2 dilution steps) in test medium (200 μl final volume). The cultures are incubated at 37° C. for 18-24 hours; enterococci in the presence of 5% CO2.
(§2) The lowest substance concentration in each case at which bacterial growth was no longer visible is defined as the MIC. […] The compounds show a graded antibacterial effect against most of the test microbes.

S. aureus T17 [2] = test: as above; assay type: cell-based
Procedure: as §1, §2
The S. aureus strain T17 is isolated in vivo. CFW1 mice are infected intraperitoneally with 4×10^7 S. aureus 133 cells per mouse. 0.5 h after the infection, the animals are treated intravenously with 50 mg/kg biphenomycin B. The kidneys are removed from the surviving animals on day 3 after the infection. After homogenization of the organs, the homogenates are plated out as described for RN4220Bi^R on antibiotic-free and antibiotic-containing agar plates and incubated at 37° C. overnight. […] About 20 of these colonies are tested for the biphenomycin B MIC, and a colony with an MIC of >50 μM is selected for further cultivation, and the strain is referred to as T17.

E. faecium L4001 [3] = test: as above; assay type: cell-based, Enterococcus faecium; details: liquid dilution, test medium with 10% FCS, 5% CO2, 18-24 h, read-out: MIC E. faecium L4001
Procedure: as §1, §2

[4] = target: S. aureus 133 Translation; test: S. aureus in vitro transcription-translation assay (firefly luciferase, S30 extract); assay type: biochemical
Excerpt: In order to construct a reporter plasmid which can be used in an in vitro transcription -translation assay from S. aureus the plasmid pBESTluc (Promega Corporation, USA) is used. The E. coli tac promoter present in this plasmid in front of the firefly luciferase is replaced by the capA1 promoter with appropriate Shine-Dalgarno sequence from S. aureus. The primers CAPFor 5′-[…] -[…]-3′ and CAPRev 5′-[…]-3′ are used for this. The primer CAPFor contains the capA1 promoter, the ribosome binding site and the 5′ region of the luciferase gene. After PCR using pBESTluc as template it is possible to isolate a PCR product which contains the firefly luciferase gene with the fused capA1 promoter. This is, after restriction with ClaI and HindIII, ligated into the vector pBESTluc which has likewise been digested with ClaI and HindIII. The resulting plasmid pla can be replicated in E. coli and be used as template in the S. aureus in vitro transcription-translation assay.
Six liters of BHI medium are inoculated with a 250 ml overnight culture of a S. aureus strain and allowed to grow at 37° C. until the OD600 nm is 2-4. The cells are harvested by centrifugation and washed in 500 ml of cold buffer A (10 mM Tris acetate, pH 8.0, 14 mM magnesium acetate, 1 mM DTT, 1 M KCl). After renewed centrifugation, the cells are washed in 250 ml of cold buffer A with 50 mM KCl, and the resulting pellets are frozen at −20° C. for 60 min. The pellets are thawed on ice in 30 to 60 min and taken up to a total volume of 99 ml in buffer B (10 mM Tris acetate, pH 8.0, 20 mM magnesium acetate, 1 mM DTT, 50 mM KCl). 1.5 ml lysostaphin (0.8 mg/ml) in buffer B are introduced into 3 precooled centrifuge cups each and each mixed with 33 ml of the cell suspension. The samples are incubated at 37° C., shaking occasionally, for 45 to 60 min, before 150 μl of a 0.5 M DTT solution are added. The lysed cells are centrifuged at 30 000×g and 4° C. for 30 min. The cell pellet is taken up in buffer B and then centrifuged again under the same conditions, and the collected supernatants are combined. The supernatants are centrifuged again under the same conditions, and 0.25 volumes of buffer C (670 mM Tris acetate, pH 8.0, 20 mM magnesium acetate, 7 mM Na3 phosphoenolpyruvate, 7 mM DTT, 5.5 mM ATP, 70 μM amino acids (complete from Promega), 75 μg of pyruvate kinase (Sigma, Germany)/ml are added to the upper ⅔ of the supernatant. The samples are incubated at 37° C. for 30 min. The supernatants are dialysed against 21 of dialysis buffer (10 mM Tris acetate, pH 8.0, 14 mM magnesium acetate, 1 mM DTT, 60 mM potassium acetate) in a dialysis tube with a 3500 Da cut-off with one buffer change at 4° C. overnight. The dialysate is concentrated to a protein concentration of about 10 mg/ml by covering the dialysis tube with cold PEG 8000 powder (Sigma, Germany) at 4° C. The S30 extracts can be stored in aliquots at −70° C.
Inhibition of protein biosynthesis of the compounds can be shown in an in vitro transcription-translation assay. The assay is based on the cell-free transcription and translation of firefly luciferase using the reporter plasmid pla as template and cell-free S30 extracts obtained from S. aureus. The activity of the resulting luciferase can be detected by luminescence measurement.
The amount of S30 extract or plasmid plato be employed must be tested anew for each preparation in order to ensure an optimal concentration in the assay. 3 μl of the substance to be tested, dissolved in 5% DMSO, are introduced into an MTP. Then 10 μl of a suitably concentrated plasmid solution p1 a are added. Then 46 μl of a mixture of 23 μl of premix (500 mM Potassium acetate, 87.5 mM Tris acetate, pH 8.0, 67.5 mM ammonium acetate, 5 mM DTT, 50 μg of folic acid/ml, 87.5 mg of PEG 8000/ml, 5 mM ATP, 1.25 mM each NTP, 20 μM each amino acid, 50 mM PEP (Na3 salt), 2.5 mM cAMP, 250 μg each E. coli tRNA/ml) and 23 μl of a suitable amount of S. aureus S30 extract are added and mixed. […]

S. aureus 133 [5] = test: MIC, alternative method, agar dilution test; assay type: cell-based
Procedure: (§3) The minimum inhibitory concentration (MIC) is the minimum concentration of an antibiotic with which the growth of a test microbe is inhibited over 18-24 h. The inhibitor concentration can be determined by standard microbiological methods using modified medium in an agar dilution test (see, for example, the National Committee for Clinical Laboratory Standards. Methods for dilution antimicrobial susceptibility tests for bacteria that grow aerobically; approved standard-fifth edition. NCCLS document M7-A5 [ISBN 1-56238-394-9]. NCCLS, 940 West Valley Road, Suite 1400, Wayne, PA. 19087-1898 USA, 2000). The bacterial microbes are cultivated on 1.5% agar plates containing 20% defibrinated horse blood. The test microbes, which are incubated on Columbia blood agar plates (Becton-Dickinson) overnight, are diluted in PBS, adjusted to a microbe count of about 5×10^5 microbes/ml and placed as drops (1-3 μl) on test plates. The test substances contain various dilutions of the test substances (1:2 dilution stages). The cultures are incubated at 37° C. in the presence of 5% CO2 for 18-24 hours.
(§4) The lowest concentration of each substance at which no visible bacterial growth occurs is defined as the MIC and is reported in μg/ml.

S. aureus T17 [6] = test: MIC, alternative method, agar dilution test; assay type: cell-based; details: for MIC: Staphylococcus aureus
Procedure: as §3, §4

E. faecium L4001 [7] = test: MIC, alternative method, agar dilution test; assay type: cell-based, Enterococcus faecium; details: for MIC: Enterococcus faecium
Procedure: as §3, §4

S. aureus RN4220Bi^R = test: Biphenomycin B MIC of the isolated resistant colony; assay type: cell-based; details: colony isolated in vitro
Procedure: The S. aureus strain RN422OBi^R is isolated in vitro. […] Whereas about 1×10^7 cells grow on the antibiotic-free plate, about 100 colonies grow on the antibiotic-containing plate, corresponding to a resistance rate of 1×10^−5. Some of the colonies grown on the antibiotic-containing plate are tested for the biphenomycin B MIC. One colony with an MIC of >50 μM is selected for further use, and the strain is referred to as RN4220Bi^R.

[8] = agar dilution, 1.5% agar with 20% defibrinated horse blood, 5% CO2, 18-24 h

Compound	MIC (S. aureus 133 [1]; Staphylococcus aureus, 133, minimal medium + 0.4% BH broth)	MIC (S. aureus T17 [2]; Staphylococcus aureus, T17, read-out: MIC S. aureus T17)	MIC (E. faecium L4001 [3]; Enterococcus faecium, L4001)	IC50 ([4]; Table A)	IC50 ([4]; Table B)	MIC (S. aureus 133 [5]; Staphylococcus aureus, 133, agar dilution, 1.5% agar with 20% defibrinated horse blood, 5% CO2, 18-24 h, read-out: MIC S. aureus 133)	MIC (S. aureus T17 [6]; T17, agar dilution, 1.5% agar with 20% defibrinated horse blood, 5% CO2, 18-24 h, read-out: MIC S. aureus T17)	MIC (E. faecium L4001 [7]; L4001, agar dilution, 1.5% agar with 20% defibrinated horse blood, 5% CO2, 18-24 h, read-out: MIC E. faecium L4001)	MIC (S. aureus 133 [1]; minimal medium + 0.4% BH broth)	MIC, selected colony T17 (S. aureus T17 [2]; colony isolated in vivo from mouse kidney)	MIC S. aureus T17 (S. aureus T17 [2]; liquid dilution, biphenomycin-resistant strain, 18-24 h)	MIC (E. faecium L4001 [3])	MIC S. aureus 133 (S. aureus 133 [5]; [8])	MIC S. aureus T17 (S. aureus T17 [6]; [8])	MIC E. faecium L4001 (E. faecium L4001 [7]; [8])	MIC, selected colony RN4220Bi^R (S. aureus RN4220Bi^R)	MIC (S. aureus 133 [5]; Staphylococcus aureus, 133, read-out: MIC S. aureus 133)	MIC (S. aureus T17 [6]; T17, read-out: MIC S. aureus T17)	MIC (E. faecium L4001 [7]; L4001, read-out: MIC E. faecium L4001)
NCCNC(=O)[C@@H]1Cc2cc(ccc2F)-c2ccc(O)c(c2)C[C@H](N)C(=O)N[C@@H](C[C@@H](O)CN)C(=O)N1 [Example 12]	0.16 µM	0.6 µM (≈ 0.31 µg/mL)	20 µM (≈ 10.3 µg/mL)	800 nM	800 nM	1 µg/mL (≈ 1.94 µM)	1 µg/mL (≈ 1.94 µM)	16 µg/mL (≈ 31 µM)											
NC[C@H](O)C[C@@H]1NC(=O)[C@@H](N)Cc2cc(ccc2O)-c2ccc(O)c(c2)C[C@@H](C(=O)O)NC1=O [Biphenomycin B, biphenomycin B, reference compound]				1500 nM	1500 nM				0.1 µM	> 50 µM	>25 µM	>25 µM	<0.03 µg/mL	>32 µg/mL	0.5 µg/mL (≈ 1.06 µM)	> 50 µM			
NCCC[C@@H]1NC(=O)[C@@H](N)Cc2cc(ccc2O)-c2ccc(N)c(c2)C[C@@H](C(=O)NCCN)NC1=O [Example 43, (8S,11S,14S)-5,14-Diamino-N-(2-aminoethyl)-11-(3-aminopropyl)-17-hydroxy-10,13-dioxo-9,12-diazatricyclo[14.3.1.1^2,6]henicosa-1(20),2(21),3,5,16,18-hexaene-8-carboxamide tetrahydrochloride]					900 nM												2 µg/mL	4 µg/mL	> 32 µg/mL
